Key:
RBL-2H3 cells [1] = test: Maximum tolerated concentration (cytotoxicity by lactate dehydrogenase release); format: cell-based, rat
Description: The safety index (SI) of a test compound is the ratio between the maximum tolerated concentration and the IC50 and is used as a measure of the relative safety of the test compound.

RBL-2H3 cells [2] = test: Inhibition of mast cell degranulation (β-hexosaminidase release); format: cell-based; conditions: Rattus norvegicus, RBL-2H3 cells sensitized with anti-DNP IgE, triggered with DNP-HSA
Description: Mast cells are key effector cells involved in allergic and inflammatory diseases, and the Rat Basophilic Leukemia clone 2H3 (RBL-2H3) cell line is a commonly used model of allergen dependent immune modulator release (degranulation) in mast cells. On their surface, they express the high affinity receptor for IgE (FcεRI) Upon binding of antigen-specific IgE to the receptor, cells become sensitized to the IgE specific antigen (allergen). When IgE-sensitized cells then encounter multivalent antigen, the antigen clusters IgE-FcεRI complexes and initiates a signal transduction cascade that leads to degranulation, that is, the release of inflammatory mediators, such as cytokines, eicosanoids, histamine and enzymes. The assay can be used as a screening method to identify immune-modulating compounds, in particular compounds useful in the medical management of allergic and inflammatory diseases and asthma. β-hexosaminidase was previously shown to be released with the same kinetics as histamine (Schwartz et al., J Immunology; 123:1445-1450 (1979)), thus offering a simple means to monitor degranulation. The RBL-2H3 cell line has been successfully used to identify compounds with anti-allergic activity (Choo et al. Planta Med., 69:518-522 (2003)).
Cell Culture: RBL-2H3 cells obtained from the German Collection of Microorganisms and Cell Cultures (ACC312) (Braunschweig, Germany) were maintained in 70% Minimum Essential Medium with Earle's Salts, 20% RPMI 1640 Medium, 10% FBS and 2 mM L-glutamine in 95% air/5% CO2 at 37° C. and routinely checked for mycoplasma contamination. Cells were passaged every 3-4 days; after washing cells once with 35 ml PBS cells were incubated 8 min with 5 ml 0.05% Trypsin-EDTA solution at 37° C. Cells were removed from the incubator, 15 ml culture medium was added and cells were resuspended by repeated pipetting.
Cell seeding: cells were harvested with Trypsin-EDTA as described and 50-100 μl cell suspension seeded into Costar CellBind 24 well cluster plates (no. 3337). Plates were kept for 30 min at RT under the sterile hood before being transferred to the incubator. Cells were used within one or two days after seeding.
For sensitization, cells for immediate use were sensitized 6-12 h after plating; cells to be used the following day were sensitized 26-38 h after plating. Culture plates were removed from the incubator and checked for cell growth and contamination. The medium was discarded and cells were sensitized with anti-DNP IgE (0.4 μg/ml) in 0.4 ml culture medium overnight. Following overnight sensitization, cells were washed with 0.8 ml pre-warmed TyB and 0.38 ml test compound or vehicle control (supplemented or not with 1% FBS) were added to duplicate wells. Samples were adjusted to contain 1% vehicle for test compounds dissolved in organic solvents. Cells were incubated for 1 h at 37° C. At the end of the incubation period, cells were routinely stimulated with 20 μl DNP-HSA (2 μg/ml; final concentration 0.1 μg/ml) diluted in TyB and cells were incubated for 15 min at 37° C. Alternatively, cells were stimulated with 20 μl 5 μM ionomycin (final concentration 0.25 μM) or 20 μl 5 μM thapsigargin (final concentration 0.25 μM), both in the absence or presence of 20 nM PMA (final concentration). […]
MUG substrate solution, 100 μl, were added to supernatant and lysate samples and plates were incubated 30 min at 37° C. […] Fluorescene was measured at 365 nm excitation and 440 nm emmission wavelengths. […]

In the case of `CCCCCCCCCCCCCC[N+](C)(C)CC(=O)N(C)C[C@H](O)[C@@H](O)[C@H](O)[C@H](O)CO` [Compound 1a, N-(2-(Dimethyl(tetradecyl)ammonio)acetyl)-N-methyl-D-glucamine chloride], the “MTC (maximum tolerated concentration)” value (RBL-2H3 cells [1]; highest concentration not causing cytotoxicity (LDH release)) is reported as 150 µM, the “SI (safety index)” value (RBL-2H3 cells [1]; ratio between MTC and IC50) is reported as 39.5 and the IC50 (RBL-2H3 cells [2]) is reported as 3.8 µM.
